Measured values taken from ChEMBL document CHEMBL5053545, “Iterative Structure-Based Optimization of Short Peptides Targeting the Bacterial Sliding Clamp” (J Med Chem, 2021).
*1 amine or outer side, *2 acyl side, *3 side chain or, on linkers, in order; H or OH if unused. Where a SMILES comes first, the peptide text is derived from it. [ ]: non-standard residue; d: D form. The star is where a group is joined. N(3-imidazol-1-ylpropyl)Gly = O=C(O)CNCCCn1ccnc1; ACHC(1S,2S) = O=C([C@H]1CCCC[C@@H]1N[*:1])[*:2]; Acryloyl(3-(3-pyridyl),E) = O=C(/C=C/c1cccnc1)*; Gly(N-3-morpholinopropyl) = O=C(O)CNCCCN1CCOCC1; Phe(3,4-Cl2) = N[C@@H](Cc1ccc(Cl)c(Cl)c1)C(=O)O; Phe(3,4-F2) = N[C@@H](Cc1ccc(F)c(F)c1)C(=O)O; Oic = O=C(O)[C@@H]1C[C@@H]2CCCC[C@@H]2N1; Cinnamoyl(4-F) = O=C(/C=C/c1ccc(F)cc1)*; Caffeoyl = O=C(/C=C/c1ccc(O)c(O)c1)*; NMeCha = CN[C@@H](CC1CCCCC1)C(=O)O; Hydrocinnamoyl = O=C(CCc1ccccc1)*; NH(4-MeO-phenyl) = COc1ccc(N*)cc1; NMeR = CN[C@@H](CCCNC(=N)N)C(=O)O; NMeF = CN[C@@H](Cc1ccccc1)C(=O)O; X3 = CN(C)/C(=N\CC(=O)*)N1CCOCC1; tBuAla = CC(C)(C)C[C@H](N)C(=O)O; NFurfurylGly = O=C(O)CNCc1ccco1; Cha = N[C@@H](CC1CCCCC1)C(=O)O; NMeD = CN[C@@H](CC(=O)O)C(=O)O; NMeL = CN[C@@H](CC(C)C)C(=O)O; Phe(ol) = N[C@H](CO)Cc1ccccc1; NHPhenethyl = c1ccc(CCN*)cc1; X1 = O=C(/C=C/c1ccccc1)*; CO = O=C([*:1])[*:2]

Columns and labels:
[1] = Binding affinity to Escherichia coli sliding clamp assessed as dissociation constant by ITC analysis
[2] = test system: Escherichia coli; assay: Binding affinity to Escherichia coli sliding clamp assessed as gibbs free energy change by ITC analysis
[3] = test system: Escherichia coli; assay: Binding affinity to Escherichia coli sliding clamp assessed as association rate constant by ITC analysis
[4] = test system: Escherichia coli; assay: Binding affinity to Escherichia coli sliding clamp assessed as dissociation rate constant by ITC analysis

| deltaG [2] [kcal/mol] | K [3] | K [4] | SMILES | Kd [1] [nM] |
| --- | --- | --- | --- | --- |
| -8.2 | 1.9 10^4/M/s | 1.8 10^-2/s | CC(=O)N[C@@H](CCC(N)=O)C(=O)N[C@@H](CC1CCCCC1)C(=O)N[C@@H](CC(=O)O)C(=O)N[C@@H](CC(C)C)C(=O)NCCc1ccccc1 (Ac-Q[Cha]DL-NHPhenethyl) | 922 |
| -8.9 | 4.2 10^4/M/s | 1.1 10^-2/s | CC(C)C[C@H](NC(=O)[C@H](CC(=O)O)NC(=O)[C@H](CC1CCCCC1)NC(=O)[C@H](CCC(N)=O)NC(=O)CNCCCn1ccnc1)C(=O)N[C@@H](Cc1ccccc1)C(=O)O (H-[N(3-imidazol-1-ylpropyl)Gly]Q[Cha]DLF-OH) | 312 |
| -9.2 | 4.8 10^4/M/s | 8.6 10^-3/s | CC(C)C[C@H](NC(=O)[C@H](CC(=O)O)NC(=O)[C@H](CC1CCCCC1)NC(=O)[C@H](CCC(N)=O)NC(=O)CNCc1ccco1)C(=O)N[C@@H](Cc1ccccc1)C(=O)O (H-[NFurfurylGly]Q[Cha]DLF-OH) | 171 |
| -9.5 | 4.6 10^4/M/s | 4.7 10^-3/s | CC(C)C[C@H](NC(=O)[C@H](CC(=O)O)NC(=O)[C@H](CC1CCCCC1)NC(=O)[C@H](CCC(N)=O)NC(=O)/C=C/c1ccc(O)c(O)c1)C(=O)N[C@@H](Cc1ccccc1)C(=O)O (Caffeoyl-Q[Cha]DLF-OH) | 99 |
| -9.9 | 7.1 10^4/M/s | 3.9 10^-3/s | CC(=O)N[C@@H](CCC(N)=O)C(=O)N[C@@H](CC1CCCCC1)C(=O)N[C@@H](CC(=O)O)C(=O)N[C@@H](CC(C)C)C(=O)N1[C@H](C(=O)N[C@@H](CC(C)C)C(=O)O)C[C@@H]2CCCC[C@@H]21 (Ac-Q[Cha]DL[Oic]L-OH) | 57 |
| -8.9 | 7.6 10^4/M/s | 2.1 10^-2/s | CC(=O)N[C@@H](CCCNC(=N)N)C(=O)N[C@@H](CCC(N)=O)C(=O)N[C@@H](CC1CCCCC1)C(=O)N(C)[C@@H](CC(=O)O)C(=O)N[C@@H](CC(C)C)C(=O)N[C@@H](Cc1ccc(Cl)c(Cl)c1)C(=O)O (Ac-RQ[Cha][NMeD]L[Phe(3,4-Cl2)]-OH) | 278 |
| -9.5 | 4.7 10^4/M/s | 5.5 10^-3/s | CC(C)C[C@H](NC(=O)[C@H](CC(=O)O)N(C)C(=O)[C@H](CC1CCCCC1)NC(=O)[C@H](CCC(N)=O)NC(=O)/C=C/c1cccnc1)C(=O)N1[C@H](C(=O)N[C@@H](Cc2ccccc2)C(=O)O)C[C@@H]2CCCC[C@@H]21 ({Acryloyl(3-(3-pyridyl),E)}-Q[Cha][NMeD]L[Oic]F-OH) | 118 |
| -7.6 | 1.1 10^4/M/s | 3 10^-2/s | CC(=O)N[C@@H](CCC(N)=O)C(=O)N[C@@H](CC1CCCCC1)C(=O)N[C@@H](CC(=O)O)C(=O)N[C@@H](CC(C)C)C(=O)NCC(=O)N[C@@H](CC(C)(C)C)C(=O)O (Ac-Q[Cha]DLG[tBuAla]-OH) | 2690 |
| -9.8 | 4 10^4/M/s | 2.8 10^-3/s | COc1ccc(NC(=O)N[C@@H](CCC(N)=O)C(=O)N[C@@H](CC2CCCCC2)C(=O)N[C@@H](CC(=O)O)C(=O)N[C@@H](CC(C)C)C(=O)N[C@@H](Cc2ccccc2)C(=O)O)cc1 ({NH(4-MeO-phenyl)-CO}-Q[Cha]DLF-OH) | 73 |
| -9 | 1 10^5/M/s | 2.3 10^-2/s | CC(=O)N[C@@H](CCC(N)=O)C(=O)N[C@@H](CC1CCCCC1)C(=O)N(C)[C@@H](CC(=O)O)C(=O)N[C@@H](CC(C)C)C(=O)N1CCC[C@H]1C(=O)N[C@@H](CC(C)C)C(=O)O (Ac-Q[Cha][NMeD]LPL-OH) | 263 |
| -8.3 | 1.8 10^4/M/s | 1.4 10^-2/s | CC(C)C[C@H](NC(=O)[C@H](CC(=O)O)NC(=O)[C@H](CC1CCCCC1)NC(=O)[C@H](CCC(N)=O)NC(=O)CNCCCN1CCOCC1)C(=O)N[C@@H](Cc1ccccc1)C(=O)O (H-[Gly(N-3-morpholinopropyl)]Q[Cha]DLF-OH) | 796 |
| -9.2 | 6.3 10^4/M/s | 1.1 10^-2/s | CC(C)C[C@H](NC(=O)[C@@H]1CCCN1C(=O)[C@H](CC(C)C)NC(=O)[C@H](CC(=O)O)N(C)C(=O)[C@H](CC1CCCCC1)NC(=O)[C@H](CCC(N)=O)NC(=O)/C=C/c1cccnc1)C(=O)O ({Acryloyl(3-(3-pyridyl),E)}-Q[Cha][NMeD]LPL-OH) | 177 |
| -9 | 3.4 10^4/M/s | 1 10^-2/s | CC(C)C[C@H](NC(=O)[C@H](CC(=O)O)NC(=O)[C@H](CC1CCCCC1)NC(=O)[C@H](CCC(N)=O)NC(=O)C/N=C(\N(C)C)N1CCOCC1)C(=O)N[C@@H](Cc1ccccc1)C(=O)O (X3-Q[Cha]DLF-OH) | 276 |
| -8.4 | 2.6 10^4/M/s | 1.9 10^-2/s | CC(=O)N[C@@H](CCC(N)=O)C(=O)N[C@@H](CC1CCCCC1)C(=O)N[C@@H](CC(=O)O)C(=O)N[C@@H](CC(C)C)C(=O)N[C@H](CO)Cc1ccccc1 (Ac-Q[Cha]DL[Phe(ol)]) | 751 |
| -7.4 | 7.4 10^4/M/s | 2.9 10^-2/s | CC(=O)N[C@@H](CCC(N)=O)C(=O)N[C@@H](CC1CCCCC1)C(=O)N[C@@H](CC(=O)O)C(=O)N[C@@H](CC(C)C)C(=O)N[C@H]1CCCC[C@@H]1C(=O)N[C@@H](CC(C)C)C(=O)O (Ac-Q[Cha]DL[ACHC(1S,2S)]L-OH) | 4070 |
| -9.3 | 5.6 10^4/M/s | 8.4 10^-3/s | CC(=O)N[C@@H](CCC(N)=O)C(=O)N[C@@H](CC1CCCCC1)C(=O)N(C)[C@@H](CC(=O)O)C(=O)N[C@@H](CC(C)C)C(=O)N[C@@H](Cc1ccc(F)c(F)c1)C(=O)O (Ac-Q[Cha][NMeD]L[Phe(3,4-F2)]-OH) | 148 |
| -9.1 | 5.5 10^4/M/s | 6.7 10^-3/s | CC(C)C[C@H](NC(=O)[C@H](CC(=O)O)NC(=O)[C@H](CC1CCCCC1)NC(=O)[C@H](CCC(N)=O)NC(=O)CCc1ccccc1)C(=O)N[C@@H](Cc1ccccc1)C(=O)O (Hydrocinnamoyl-Q[Cha]DLF-OH) | 123 |
| -9.1 | 3.8 10^4/M/s | 7.9 10^-3/s | CC(=O)N[C@@H](CCC(N)=O)C(=O)N[C@@H](CC1CCCCC1)C(=O)N(C)[C@@H](CC(=O)O)C(=O)N[C@@H](CC(C)C)C(=O)N1CCC[C@H]1C(=O)N[C@@H](Cc1ccc(Cl)c(Cl)c1)C(=O)O (Ac-Q[Cha][NMeD]LP[Phe(3,4-Cl2)]-OH) | 231 |
| -9.4 | 6 10^4/M/s | 8 10^-3/s | CC(C)C[C@H](NC(=O)[C@@H]1CCCN1C(=O)[C@H](CC(C)C)NC(=O)[C@H](CC(=O)O)NC(=O)[C@H](CC1CCCCC1)NC(=O)[C@H](CCC(N)=O)NC(=O)/C=C/c1ccccc1)C(=O)O (X1-Q[Cha]DLPL-OH) | 132 |
| -9.5 | 5.5 10^4/M/s | 7.1 10^-3/s | CC(=O)N[C@@H](CCC(N)=O)C(=O)N[C@@H](CC1CCCCC1)C(=O)N[C@@H](CC(=O)O)C(=O)N[C@@H](CC(C)C)C(=O)N1[C@H](C(=O)N[C@@H](Cc2ccccc2)C(=O)O)C[C@@H]2CCCC[C@@H]21 (Ac-Q[Cha]DL[Oic]F-OH) | 120 |
| -8.9 | 3.2 10^4/M/s | 1.1 10^-2/s | CC(=O)N[C@@H](CCC(N)=O)C(=O)N[C@@H](CC1CCCCC1)C(=O)N[C@@H](CC(=O)O)C(=O)N[C@@H](CC(C)C)C(=O)NCC(=O)N[C@@H](Cc1ccccc1)C(=O)O (Ac-Q[Cha]DLGF-OH) | 313 |
| -9.6 | 1.1 10^5/M/s | 9.4 10^-3/s | CC(=O)N(C)[C@@H](CCCNC(=N)N)C(=O)N[C@@H](CCC(N)=O)C(=O)N[C@@H](CC1CCCCC1)C(=O)N(C)[C@@H](CC(=O)O)C(=O)N[C@@H](CC(C)C)C(=O)N[C@@H](Cc1ccc(Cl)c(Cl)c1)C(=O)O (Ac-[NMeR]Q[Cha][NMeD]L[Phe(3,4-Cl2)]-OH) | 92 |
| -7.1 | 1 10^4/M/s | 5.4 10^-2/s | CC(=O)N[C@@H](CCC(N)=O)C(=O)N[C@@H](CC1CCCCC1)C(=O)N[C@@H](CC(=O)O)C(=O)N[C@@H](CC(C)C)C(=O)N(C)[C@@H](Cc1ccccc1)C(=O)O (Ac-Q[Cha]DL[NMeF]-OH) | > 1000 |
| -9.7 | 6 10^4/M/s | 5 10^-3/s | CC(=O)N[C@@H](CCC(N)=O)C(=O)N[C@@H](CC1CCCCC1)C(=O)N[C@@H](CC(=O)O)C(=O)N[C@@H](CC(C)C)C(=O)N1CCC[C@H]1C(=O)N[C@@H](Cc1ccccc1)C(=O)O (Ac-Q[Cha]DLPF-OH) | 81 |
| -9.3 | 4.6 10^4/M/s | 6.3 10^-3/s | CC(C)C[C@H](NC(=O)[C@H](CC(=O)O)NC(=O)[C@H](CC1CCCCC1)NC(=O)[C@H](CCC(N)=O)NC(=O)/C=C/c1ccc(F)cc1)C(=O)N[C@@H](Cc1ccccc1)C(=O)O ({Cinnamoyl(4-F)}-Q[Cha]DLF-OH) | 144 |
| -10.1 | 2.7 10^5/M/s | 1 10^-2/s | CC(=O)N[C@@H](CCC(N)=O)C(=O)N[C@@H](CC1CCCCC1)C(=O)N(C)[C@@H](CC(=O)O)C(=O)N[C@@H](CC(C)C)C(=O)N[C@@H](Cc1ccc(Cl)c(Cl)c1)C(=O)O (Ac-Q[Cha][NMeD]L[Phe(3,4-Cl2)]-OH) | 41 |
| -7.7 | 2.1 10^4/M/s | 2.9 10^-2/s | CC(=O)N(C)[C@@H](CCCNC(=N)N)C(=O)N[C@@H](CCC(N)=O)C(=O)N[C@@H](CC1CCCCC1)C(=O)N[C@@H](CC(=O)O)C(=O)N[C@@H](CC(C)C)C(=O)N[C@@H](Cc1ccccc1)C(=O)O (Ac-[NMeR]Q[Cha]DLF-OH) | 2130 |
| -9.5 | 2.1 10^4/M/s | 1.9 10^-2/s | CC(=O)N[C@@H](CCC(N)=O)C(=O)N[C@@H](CC1CCCCC1)C(=O)N(C)[C@@H](CC(=O)O)C(=O)N[C@@H](CC(C)C)C(=O)N[C@@H](Cc1ccccc1)C(=O)O (Ac-Q[Cha][NMeD]LF-OH) | 114 |
| -6 | – | – | CC(=O)N[C@@H](CCC(N)=O)C(=O)N(C)[C@@H](CC1CCCCC1)C(=O)N[C@@H](CC(=O)O)C(=O)N[C@@H](CC(C)C)C(=O)N[C@@H](Cc1ccccc1)C(=O)O (Ac-Q[NMeCha]DLF-OH) | > 1000 |
| -5.2 | – | – | CC(=O)N[C@@H](CCC(N)=O)C(=O)N[C@@H](CC1CCCCC1)C(=O)N[C@@H](CC(=O)O)C(=O)N(C)[C@@H](CC(C)C)C(=O)N[C@@H](Cc1ccccc1)C(=O)O (Ac-Q[Cha]D[NMeL]F-OH) | > 1000 |
